For nine compounds, IC50 and Ki results are on record in ChEMBL document CHEMBL1909046, “DrugMatrix in vitro pharmacology data”.

Test [1] can be described thus: DRUGMATRIX: Purinergic P2X radioligand binding (ligand: [3H] alpha, beta-Methylene-ATP). The format is cell membranes, Oryctolagus cuniculus, New Zealand albino, Urinary bladder, Membrane. Particulars: Not Active = under 50% inhibition at 10 µM.
Test [2] in a line: DRUGMATRIX: Platelet-Derived Growth Factor (PDGF) radioligand binding (ligand: [125I] PDGF). The test is classed as cell-based. To be noted: nih3t3; Not Active = under 50% inhibition at 10 µM.
In test [3] the target is T1, Amine oxidase [flavin-containing] A (Homo sapiens, UniProt P21397).
T1 sequence (P21397 whole entry): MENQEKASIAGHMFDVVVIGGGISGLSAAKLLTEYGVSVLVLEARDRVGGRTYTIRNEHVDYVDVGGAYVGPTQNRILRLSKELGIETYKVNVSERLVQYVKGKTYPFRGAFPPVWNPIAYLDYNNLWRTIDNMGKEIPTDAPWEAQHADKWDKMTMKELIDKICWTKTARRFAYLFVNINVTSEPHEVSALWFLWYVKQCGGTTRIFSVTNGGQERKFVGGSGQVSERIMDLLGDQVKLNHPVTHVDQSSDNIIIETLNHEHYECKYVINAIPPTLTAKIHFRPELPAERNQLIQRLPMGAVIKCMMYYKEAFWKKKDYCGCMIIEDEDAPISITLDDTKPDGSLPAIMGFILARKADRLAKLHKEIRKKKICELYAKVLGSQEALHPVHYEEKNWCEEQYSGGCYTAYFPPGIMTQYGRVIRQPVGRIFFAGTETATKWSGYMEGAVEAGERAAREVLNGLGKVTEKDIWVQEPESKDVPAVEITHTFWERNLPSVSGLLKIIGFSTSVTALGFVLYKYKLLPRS
The test can be described thus: DRUGMATRIX: Monoamine Oxidase MAO-A enzyme inhibition (substrate: Kynuramine). Further details: species or system BTI-TN-5B1-4. Particulars: bti-tn-5b1-4; Not Active = under 50% inhibition at 10 µM.

For test [4], the target named is Epidermal growth factor receptor (Homo sapiens, UniProt P00533). The test can be described thus: DRUGMATRIX: Protein Tyrosine Kinase, EGF Receptor enzyme inhibition (substrate: Poly(Glu:Tyr)). The test is classed as cell-based, Insect cells. Particulars: Not Active = under 50% inhibition at 10 µM.
Sequence of Epidermal growth factor receptor (P00533 whole entry): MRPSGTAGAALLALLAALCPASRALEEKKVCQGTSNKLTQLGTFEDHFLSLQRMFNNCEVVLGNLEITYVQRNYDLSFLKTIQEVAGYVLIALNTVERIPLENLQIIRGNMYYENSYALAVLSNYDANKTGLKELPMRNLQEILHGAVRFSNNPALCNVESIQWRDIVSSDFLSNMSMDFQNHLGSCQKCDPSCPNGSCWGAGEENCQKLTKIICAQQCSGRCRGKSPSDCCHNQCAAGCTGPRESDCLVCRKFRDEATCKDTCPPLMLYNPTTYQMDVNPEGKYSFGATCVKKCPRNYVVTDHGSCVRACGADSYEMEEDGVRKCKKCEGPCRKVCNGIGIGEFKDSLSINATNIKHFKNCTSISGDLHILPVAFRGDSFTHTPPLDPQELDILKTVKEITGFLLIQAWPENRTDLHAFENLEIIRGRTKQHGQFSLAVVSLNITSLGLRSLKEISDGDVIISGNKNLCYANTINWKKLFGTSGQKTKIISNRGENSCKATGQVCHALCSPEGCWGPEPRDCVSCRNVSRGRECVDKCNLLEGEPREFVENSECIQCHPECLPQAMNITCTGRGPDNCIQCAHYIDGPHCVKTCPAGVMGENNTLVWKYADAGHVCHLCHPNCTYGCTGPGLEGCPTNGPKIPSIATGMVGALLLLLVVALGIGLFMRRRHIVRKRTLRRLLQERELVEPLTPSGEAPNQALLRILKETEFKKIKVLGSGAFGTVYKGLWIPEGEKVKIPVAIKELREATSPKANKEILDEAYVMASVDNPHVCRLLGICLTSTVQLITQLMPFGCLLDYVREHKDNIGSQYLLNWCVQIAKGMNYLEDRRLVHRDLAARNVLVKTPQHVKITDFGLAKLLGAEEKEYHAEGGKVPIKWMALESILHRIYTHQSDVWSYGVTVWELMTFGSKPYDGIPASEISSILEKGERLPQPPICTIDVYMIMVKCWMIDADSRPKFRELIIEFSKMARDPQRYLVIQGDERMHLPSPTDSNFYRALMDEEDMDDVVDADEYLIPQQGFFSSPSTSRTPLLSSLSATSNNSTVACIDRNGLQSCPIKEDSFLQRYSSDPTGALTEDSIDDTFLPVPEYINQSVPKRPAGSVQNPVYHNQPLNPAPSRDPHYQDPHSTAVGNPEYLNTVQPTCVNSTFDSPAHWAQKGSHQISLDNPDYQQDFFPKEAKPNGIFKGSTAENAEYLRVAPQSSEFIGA
The target in test [5] is Protein phosphatase 3 catalytic subunit alpha (Homo sapiens, UniProt Q08209). Set-up: species or system Escherichia coli.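 Further: inhibition of calcineurin (PP2B) enzyme activity, measured with DiFMUP as the substrate; in other assays of this panel Not Active means under 50% inhibition at 10 µM.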
The target in test [6] is Mitogen-activated protein kinase 14 (Homo sapiens, UniProt Q16539). Further details: species or system Escherichia coli.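 Further: inhibition of p38alpha enzyme activity in a biochemical kinase assay, with myelin basic protein serving as substrate; in other assays of this panel Not Active means under 50% inhibition at 10 µM.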
Sequence of Mitogen-activated protein kinase 14 (Q16539 whole entry): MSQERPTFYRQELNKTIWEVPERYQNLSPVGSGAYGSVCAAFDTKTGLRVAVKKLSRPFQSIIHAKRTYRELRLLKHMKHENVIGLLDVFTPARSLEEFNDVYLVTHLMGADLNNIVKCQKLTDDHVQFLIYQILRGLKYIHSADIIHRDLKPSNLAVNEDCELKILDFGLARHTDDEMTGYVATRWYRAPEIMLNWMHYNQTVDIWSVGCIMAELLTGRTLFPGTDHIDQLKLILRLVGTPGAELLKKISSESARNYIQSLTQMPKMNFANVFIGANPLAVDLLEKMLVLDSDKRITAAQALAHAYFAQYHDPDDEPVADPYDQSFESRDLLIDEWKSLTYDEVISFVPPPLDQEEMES
Test [7] has as its target T2, C-C chemokine receptor type 4 (Homo sapiens, UniProt P51679). Further: in other assays of this panel Not Active means under 50% inhibition at 10 µM.
T2 sequence (P51679 whole entry): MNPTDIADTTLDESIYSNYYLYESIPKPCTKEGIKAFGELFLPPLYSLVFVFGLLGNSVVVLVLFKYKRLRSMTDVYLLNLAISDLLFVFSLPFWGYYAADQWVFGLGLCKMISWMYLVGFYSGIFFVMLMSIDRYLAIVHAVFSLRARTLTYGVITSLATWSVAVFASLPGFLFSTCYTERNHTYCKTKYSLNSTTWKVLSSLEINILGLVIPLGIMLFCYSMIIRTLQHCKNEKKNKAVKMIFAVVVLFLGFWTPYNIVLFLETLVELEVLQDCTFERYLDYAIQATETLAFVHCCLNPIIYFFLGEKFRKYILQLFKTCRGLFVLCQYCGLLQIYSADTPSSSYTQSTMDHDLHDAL
The format is cell membranes, Membrane. Particulars: chem-1.

The target of test [8] is 5-hydroxytryptamine receptor 6 (Homo sapiens, UniProt P50406). The test is classed as cell membranes, HeLa, Membrane. Particulars: hela. Further: in other assays of this panel Not Active means under 50% inhibition at 10 µM.
Sequence of 5-hydroxytryptamine receptor 6 (P50406 whole entry): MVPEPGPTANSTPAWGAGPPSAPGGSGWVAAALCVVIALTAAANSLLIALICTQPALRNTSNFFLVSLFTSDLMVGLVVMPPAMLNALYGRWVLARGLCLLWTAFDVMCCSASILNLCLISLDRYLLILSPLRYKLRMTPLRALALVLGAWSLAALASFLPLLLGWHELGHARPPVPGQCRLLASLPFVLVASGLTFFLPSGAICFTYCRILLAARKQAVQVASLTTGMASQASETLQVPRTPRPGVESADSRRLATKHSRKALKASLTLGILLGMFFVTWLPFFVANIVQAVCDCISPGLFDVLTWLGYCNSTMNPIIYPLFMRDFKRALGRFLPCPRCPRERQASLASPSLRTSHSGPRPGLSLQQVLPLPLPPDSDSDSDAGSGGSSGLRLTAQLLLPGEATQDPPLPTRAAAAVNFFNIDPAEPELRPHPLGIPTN
Test [9] has as its target cGMP-specific 3',5'-cyclic phosphodiesterase (Homo sapiens, UniProt O76074). The test can be described thus: DRUGMATRIX: Phosphodiesterase PDE5 enzyme inhibition (substrate: [3H]cGMP + cGMP). The test is classed as tissue-based, Platelet. To be noted: platelet; Not Active = under 50% inhibition at 10 µM.
Test [10] addresses Beta-3 adrenergic receptor (Homo sapiens, UniProt P13945). Put plainly: DRUGMATRIX: Adrenergic beta3 radioligand binding (ligand: [125I] Cyanopindolol). To be noted: hek293; Not Active = under 50% inhibition at 10 µM. The test is classed as cell membranes, HEK293, Membrane.
The next test has as its target T3, Cathepsin G (Homo sapiens, UniProt P08311).
T3 sequence (P08311 whole entry): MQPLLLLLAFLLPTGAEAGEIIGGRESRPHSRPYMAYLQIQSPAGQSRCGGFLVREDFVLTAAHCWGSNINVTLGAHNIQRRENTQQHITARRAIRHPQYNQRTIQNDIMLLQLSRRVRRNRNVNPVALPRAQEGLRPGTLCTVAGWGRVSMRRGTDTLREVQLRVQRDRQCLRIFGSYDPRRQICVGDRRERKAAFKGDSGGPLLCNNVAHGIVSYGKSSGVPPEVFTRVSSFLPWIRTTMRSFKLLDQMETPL
The format is tissue-based. To be noted: neutrophil.

The target in a further test is Melanocortin receptor 5 (Homo sapiens, UniProt P33032). The format is cell membranes, HEK293, Membrane. Particulars: hek293. Further: in other assays of this panel Not Active means under 50% inhibition at 10 µM.
Sequence of Melanocortin receptor 5 (P33032 whole entry): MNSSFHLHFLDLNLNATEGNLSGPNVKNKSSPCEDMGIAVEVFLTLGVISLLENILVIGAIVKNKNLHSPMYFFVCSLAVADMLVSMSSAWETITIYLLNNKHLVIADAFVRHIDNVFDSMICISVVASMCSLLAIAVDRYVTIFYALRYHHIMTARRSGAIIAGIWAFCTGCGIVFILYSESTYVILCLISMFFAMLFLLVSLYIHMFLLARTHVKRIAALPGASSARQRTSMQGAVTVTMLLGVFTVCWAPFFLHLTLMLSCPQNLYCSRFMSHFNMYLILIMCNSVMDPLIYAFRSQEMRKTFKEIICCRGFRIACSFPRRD
Test [11] concerns the target Beta-2 adrenergic receptor (Homo sapiens, UniProt P07550). Put plainly: DRUGMATRIX: Adrenergic beta2 radioligand binding (ligand: [3H] CGP-12177). The test is classed as cell membranes, Membrane. To be noted: cho; Not Active = under 50% inhibition at 10 µM.

Sequence of Beta-3 adrenergic receptor (P13945 whole entry): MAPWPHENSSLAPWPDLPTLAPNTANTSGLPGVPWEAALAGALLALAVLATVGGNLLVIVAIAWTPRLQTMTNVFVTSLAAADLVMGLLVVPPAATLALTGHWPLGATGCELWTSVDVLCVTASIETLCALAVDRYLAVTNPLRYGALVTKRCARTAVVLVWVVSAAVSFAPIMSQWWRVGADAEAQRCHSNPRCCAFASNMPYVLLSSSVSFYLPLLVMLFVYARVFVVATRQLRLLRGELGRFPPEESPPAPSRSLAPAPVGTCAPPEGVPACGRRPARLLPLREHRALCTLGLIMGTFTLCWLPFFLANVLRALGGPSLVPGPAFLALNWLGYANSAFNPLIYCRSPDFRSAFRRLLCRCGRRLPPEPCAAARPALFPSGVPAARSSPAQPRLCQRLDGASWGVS
Sequence of Beta-2 adrenergic receptor (P07550 whole entry): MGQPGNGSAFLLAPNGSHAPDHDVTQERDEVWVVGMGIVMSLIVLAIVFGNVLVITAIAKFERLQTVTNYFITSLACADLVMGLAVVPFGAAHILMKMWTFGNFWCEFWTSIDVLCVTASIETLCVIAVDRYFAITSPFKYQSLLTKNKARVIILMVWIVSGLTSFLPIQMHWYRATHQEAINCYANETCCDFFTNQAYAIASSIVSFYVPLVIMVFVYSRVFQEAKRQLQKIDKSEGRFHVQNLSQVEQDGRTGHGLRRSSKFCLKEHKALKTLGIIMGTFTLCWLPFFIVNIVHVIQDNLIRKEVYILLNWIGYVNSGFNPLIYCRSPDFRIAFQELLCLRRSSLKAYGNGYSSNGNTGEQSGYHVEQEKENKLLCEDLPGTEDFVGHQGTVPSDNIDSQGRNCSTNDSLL

As for `CCOC(=O)[C@H](CCc1ccccc1)N[C@@H](C)C(=O)N1[C@H](C(=O)O)C[C@@H]2CCC[C@@H]21`, the IC50 entry in test [1], in [2], in test [3], in test [4] (insect cells), in [5] and in test [6] was “Not Active” throughout. Besides, the half-maximal inhibitory concentration (IC50) entry (in [7]; in test [8]; in test [9]; in [10]; at Cathepsin G; against Melanocortin receptor 5) was “Not Active” each time. For the same compound, the IC50 entry in [11] is “Not Active”. For the same compound, the Ki result in [1] and in test [2] was “Not Active” in each case.

For `CC(C)(C)NC(=O)[C@@H]1CN(Cc2cccnc2)CCN1C[C@@H](O)C[C@@H](Cc1ccccc1)C(=O)N[C@H]1c2ccccc2C[C@H]1O.O`, the concentration for half-maximal inhibition (IC50) result in test [1], in [2], in test [3], in test [4] (insect cells), in [5] and in test [6] was “Not Active” throughout. In addition, the half-maximal inhibitory concentration (IC50) entry (in test [7]; in test [8]; in test [9]; in test [10]; on Cathepsin G; on Melanocortin receptor 5) was “Not Active” throughout. In addition, the IC50 result in [11] is “Not Active”. Further, the Ki result in [1] and in [2] was “Not Active” throughout.

Regarding `CC1(C)[C@H]2CC[C@]1(C)C(=O)C2` [(-)-CAMPHOR], the IC50 result in [1], in test [2], in test [3], in test [4] (insect cells), in [5] and in test [6] was “Not Active” each time. The IC50 entry (in [7]; in test [8]; in test [9]; in [10]; on Cathepsin G; on Melanocortin receptor 5) was “Not Active” each time. The IC50 result in [11] is given as “Not Active”. The Ki entry in test [1] and in [2] was “Not Active” in each case.

Turning to `Oc1c(I)cc(I)c2cccnc12` [IODOQUINOL], the concentration for half-maximal inhibition (IC50) result in [1] was “Not Active”; in [2], “Not Active”; in test [3], “Not Active”; in test [4] (read-out: IC50), 1.89 µM; in [5], “Not Active”; in test [6] (read-out: IC50), 0.364 µM. For the same compound, the IC50 result (in test [7]; in [8]; in [9]; in test [10]; against Cathepsin G; against Melanocortin receptor 5) was “Not Active” in each case. In addition, the IC50 result in test [11] is given as “Not Active”. Also, the Ki entry in test [1] and in test [2] was “Not Active” each time.

Take `NNC(=O)c1ccncc1` [ISONIAZID]: the IC50 result in test [1], in test [2], in test [3], in test [4] (insect cells), in [5] and in [6] was “Not Active” each time. For the same compound, the IC50 entry (in [7]; in test [8]; in test [9]; in test [10]; on Cathepsin G; against Melanocortin receptor 5) was “Not Active” in each case. Also, the IC50 result in test [11] was “Not Active”. The Ki result in test [1] and in test [2] was “Not Active” each time.

`CC1=C(/C=C/C(C)=C/C=C/C(C)=C\C(=O)O)C(C)(C)CCC1` [ISOTRETINOIN]: the concentration for half-maximal inhibition (IC50) result was “Not Active” in [1]; “Not Active” in test [2]; “Not Active” in [3]; “Not Active” in [4] (insect cells); “Not Active” in test [5]; 2.53 µM in test [6] (read-out: IC50). Further, the 50% inhibitory concentration (IC50) result (in [7]; in test [8]; in [9]; in [10]; at Cathepsin G; against Melanocortin receptor 5) was “Not Active” throughout. Further, the IC50 result in test [11] is “Not Active”. The Ki result in test [1] and in test [2] was “Not Active” throughout.

For the compound `CO[C@@H]1[C@@H](O[C@@H]2O[C@H](C)[C@@H](O[C@H]3C[C@@](C)(O)[C@@H](OC(=O)CC(C)C)[C@H](C)O3)[C@H](N(C)C)[C@H]2O)[C@@H](CC=O)C[C@@H](C)[C@@H](O)/C=C/C=C/C[C@@H](C)OC(=O)C[C@H]1O` [KITASAMYCIN], the IC50 result in test [1], in test [2], in test [3], in test [4] (insect cells), in test [5] and in [6] was “Not Active” each time. Besides, the IC50 entry (in test [7]; in test [8]; in test [9]; in test [10]; against Cathepsin G; at Melanocortin receptor 5) was “Not Active” in each case. Besides, the 50% inhibitory concentration (IC50) entry in [11] is reported as “Not Active”. For the same compound, the Ki entry in test [1] and in test [2] was “Not Active” throughout.

`Nc1nnc(-c2cccc(Cl)c2Cl)c(N)n1` [LAMOTRIGINE]: the concentration for half-maximal inhibition (IC50) result in [1], in test [2], in test [3], in test [4] (insect cells), in test [5] and in test [6] was “Not Active” each time. The 50% inhibitory concentration (IC50) entry (in test [7]; in test [8]; in test [9]; in [10]; at Cathepsin G; at Melanocortin receptor 5) was “Not Active” throughout. For the same compound, the IC50 result in test [11] is recorded as “Not Active”. For the same compound, the Ki result in [1] and in test [2] was “Not Active” throughout.

Consider `COc1cccc(C2(O)CCCCC2CN(C)C)c1` (stereo unspecified) [TRAMADOL], for which the half-maximal inhibitory concentration (IC50) result in [3], in [4] (insect cells), in test [5], in [6], in test [7] and in test [8] was “Not Active” throughout. The IC50 entry (in [9]; in test [10]; at Cathepsin G; on Melanocortin receptor 5; in [11]) was “Not Active” in each case.

A word on the IC50: it is the midpoint of a concentration-inhibition curve.
